Laboratory results: patent US20130267588A1, “HYDROXYTYROSOL ETHERS” (FUNDACIO IMIM, priority 2010, published 2013)
Read-outs that look alike come from different tables or passages of the source.

Key:
[1] = biological target: T1, CB1 receptor (Rattus norvegicus, UniProt P20272); experiment: Ligand-receptor assay for the CB1 receptor, displacement of [3H] SR141716; format: binding; settings: rat cerebellum membranes
T1 construct: displace [^3H]; from tissue; host or cells: rat cerebellum membranes
Method: The ligand-receptor assay for the CB1 receptor evaluates the capacity of the synthesized compounds to displace [^3H]
The ligand-receptor assay was performed using the CB1 labeled antagonist, [^3H] […] 450 μL of pH-regulating solution A (50 mM Tris pH=7.4 with 0.5% bovine serum albumin (BSA)), 100-200 μg rat cerebellum membranes, the diluted product and the labeled CB1 antagonist, [^3H] […] After incubating for […] at 37° C., the reaction was stopped with 1 mL of pH-regulating solution A. The mixture was centrifuged at 5000 rpm for 5 minutes. The supernatant was discarded and the pellet washed with another 1 mL of pH-regulating solution A, centrifuged and the supernatant one again was discarded. Scintillation liquid was added and the samples were read in a beta particle counter (Liquid Scintillation Analyzer, Tri-Carb 2100 TR, PACKARD, Packard Bioscience Company).

[2] = test system: male Wistar rats; experiment: Acute intake experiment in animals fasting for 24 hours; format: in vivo, rat; settings: rats fasted 24 hours, food given 30 min after injection, n=8
Method: All the in vivo experiments were performed using male Wistar rats weighing 200-500 g. The animals were housed in individual cages in a room with controlled temperature (23° C.) and humidity (50%) with a 12/12 light and dark cycle. The animals had access to water and food ad libitum except in specific experimental methods. The animals were manipulated once a day for this two days before the experimental sessions. All the products were dissolved in a mixture of DMSO (5%), Tween 60 (5%)/saline (90%). The in vivo experiments included the analysis of intake and effects on general behavior. None of the assayed compounds altered the general behavior of the animal but some reduced the animal's appetite (FIGS. 1 to 8).
The acute effect on the intake of all the products was tested in animals fasting for 24 hours.
Thirty minutes after injection, previously weighed food was put in the cage. The food was weighed 30, 60, 120 and 240 minutes after starting the test. All the intake experiments were performed with groups of 8 animals (n=8) (FIGS. 1 to 8). […] The compounds (Z)-1-(2-phenylethoxy)octadec-9-ene (Example 3, FIG. 1) and (Z)-1-(2-(3,4-methylenedioxyphenyl)ethoxy)octadec-9-ene (Example 2, FIG. 3) reduced intake by about 25%. All the compounds had long-term effects, the reduction of intake being significant 4 hours after administration.

[3] = test system: LDL; experiment: Conjugated dienes experiment, copper-induced LDL oxidation; format: biochemical, human; settings: compounds at 0.5, 1 and 3 μM
Method: Blood from healthy, fasting volunteers is collected in tubes containing 1 g/L of EDTA. The plasma is prepared by centrifugation at 1,000 g and 4° C. for 15 minutes. LDL is isolated by sequential ultracentrifugation. Native LDL is dialyzed by size exclusion chromatography in Sephadex G25 columns (Pharmacia, Uppsala, Sweden), with 2.7 ml of 0.01 mol pH 7.4 phosphate buffer (PB) at 4° C. The apolipoprotein B100 content is determined by immunoturbidimetry (ABX Diagnostics—Montpellier, France).
Dialyzed LDL (final concentration of 0.06 g of Apo-B/L) in PB at a final volume of 150 μL was incubated in a […] ELISA plate (flat bottom, transparent to UV, Corning®) with 10 μL of methanol in the presence or absence (control) of the compounds object of the study. 10 μL of a 100 μM copper sulfate solution (final concentration of […]) are then added. To minimize evaporation during prolonged incubation periods, 10 μL of mineral oil (Sigma-Aldrich) are added on the surface of the reaction mixture. […] The absorbance at 234 nm is continuously monitored every 15 minutes for 24 hours in an Infinite M200 plate reader (TECAN IBERICA, Männedorf, Switzerland). The controls and the samples (containing concentrations of the compounds to be assayed of 0.5, 1 and 3 μM) were evaluated in the same assay in duplicate and each experiment was repeated three times. […]

T1 sequence (P20272 whole entry): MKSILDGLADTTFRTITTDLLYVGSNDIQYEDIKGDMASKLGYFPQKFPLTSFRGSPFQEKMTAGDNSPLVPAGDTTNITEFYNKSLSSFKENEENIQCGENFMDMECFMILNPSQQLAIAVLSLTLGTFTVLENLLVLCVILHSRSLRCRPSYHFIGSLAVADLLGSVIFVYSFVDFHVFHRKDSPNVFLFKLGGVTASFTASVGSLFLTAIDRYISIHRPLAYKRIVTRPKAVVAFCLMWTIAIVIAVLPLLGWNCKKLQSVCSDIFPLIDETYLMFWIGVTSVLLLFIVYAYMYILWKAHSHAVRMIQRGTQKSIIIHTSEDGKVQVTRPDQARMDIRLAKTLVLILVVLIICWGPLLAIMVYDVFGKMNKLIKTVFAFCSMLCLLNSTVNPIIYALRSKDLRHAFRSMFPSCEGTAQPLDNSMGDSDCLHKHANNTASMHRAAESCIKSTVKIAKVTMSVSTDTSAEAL

Row | CB1 Ki (M) [1] | CB1 pKi [1] | Compound | reduction of intake with respect to the control group [2] | Ki ([1]; read-out: CB1 Ki) | Ki ([1]; read-out: CB1 pKi (converted)) | LDL antioxidant activity (lag-time until formation of conjugated dienes) [3]
1 | No affinity | No affinity | CCCCCCCC/C=C\CCCCCCCCOCCc1ccc2c(c1)OCO2 [Example 2, (Z)-1-(2-(3,4-methylenedioxyphenyl)ethoxy)octadec-9-ene] | about 25% |  |  | 
2 | No affinity | No affinity | CCCCCCCC/C=C\CCCCCCCCOCCc1ccccc1 [Example 3, (Z)-1-(2-phenylethoxy)octadec-9-ene] | about 25% |  |  | 
3 |  |  | CCCCC/C=C\C/C=C\CCCCCCCCOCCc1ccc2c(c1)OCO2 [Example 5, (9Z,12Z)-1-(2-(3,4-methylenedioxyphenyl)ethoxy)-octadeca-9,12-diene] |  | 22.5 µM |  | 
4 |  |  | CCCCC/C=C\C/C=C\CCCCCCCCOCCc1ccc(O)c(O)c1 [Example 10, (9Z,12Z)-1-(2-(3,4-dihydroxyphenyl)ethoxy)-octadeca-9,12-diene] | 50% | 7.49 µM | 7.59 µM | activity similar to that of hydroxytyrosol at the three assayed concentrations
